{
  "source": "paper PMC6736837",
  "about": "“^18F-labelled triazolyl-linked argininamides targeting the neuropeptide Y Y1R for PET imaging of mammary carcinoma” (Scientific Reports, 2019)",
  "key": {"[1]": {"assay": "Radioactive metabolites of Y1R radioligands in mouse blood", "type": "in vivo", "conditions": "for stability in the blood in vivo (in words): mouse blood samples taken early after radiotracer injection; for intact radioligand in blood samples: 5 min p.i.", "procedure": "Nude mice were anesthetised with isoflurane and injected with the respective radiotracer (3–25 MBq) into the tail vein. After 5 min, animals were sacrificed by cervical dislocation and approx. 100 µL blood were collected from the abdomen and transferred into Li-heparinised Microvettes® (100 LH, Sarstedt). The same volume of aqueous urea (0.8 g/mL) was added and the Microvette® was centrifuged (2000 × g, 5 min). The supernatant was transferred to a 1.5 mL reaction vial, mixed with the same volume of 10% aqueous TFA and centrifuged (20000 × g, 5 min). This step was repeated once. A sample of the resulting supernatant (100 µL) was analysed by radio-HPLC using two methods (Chromolith RP-18e, 100 × 4.6 mm, 4 mL/min, 0–1 min 25% CH3CN (0.1%TFA) in water (0.1%TFA), 1–6 min 25–60%, 6–7 min 60–100%, 7–8 min 100%; Kromasil 100 C8 5 µm, 250 × 4.6 mm, 1.5 mL/min, 1–25 min 20–53.3% CH3CN (0.1% TFA) in water (0.1% TFA), 25–27 min 53.3–80%, 27–28 min 80–100%, 28–32 min 100%)."}, "MCF-7-Y1 cells": {"system": "MCF-7-Y1 cells", "assay": "Cellular accumulation assay in MCF-7-Y1 cells", "type": "cell-based, human", "conditions": "nonspecific binding with 10 µM BIBP3226; [^18F]12 at 30 and 60 min", "procedure": "MCF-7-Y1 is a subclone that originated in Prof. […] MCF-7-Y1 cells were cultivated in MEM Earle´s liquid medium with 2.2 g/L NaHCO3 (Merck Biochrom, Darmstadt) containing 10% FBS and 1% L-glutamine. All cells were cultured under sterile conditions in a humidified atmosphere containing 5% CO2 at 37 °C. Cells were routinely passaged twice a week.\nThe cellular accumulation of Y1R radioligands by MCF-7-Y1 cells was measured: On the day prior to the experiment, 300,000 cells per well were seeded into 24-well plates (Greiner Bio-One). Attached cells were washed twice with cold PBS and 450 µL of assay medium (cell culture medium containing 0.1% BSA) were added to the cells for total binding. For non-specific binding, 400 µL of assay medium and 50 µL of medium containing 10 µM BIBP3226 were added. Finally, 50 µL of medium containing approx. 15 kBq of the respective radiotracer were added to each well, and cells were incubated at 37 °C for 10, 30, 60 or 90 min. After incubation, cells were washed with 500 µL of ice-cold PBS and lysed with 600 µL of warm 1 M NaOH. The lysed cells were transferred to counting tubes and analysed in the γ-counter (Wallac Wizard, Perkin Elmer, Waltham, MA, USA). Separate tubes containing 50 µL of medium with the radiotracer (approx. 15 kBq) were analysed as reference samples. Experiments were performed in sextuplicate (n = 6)."}},
  "data": [
    {"compound": "N/C(=N/C(=O)NCc1cn([C@@H]2OC(C[18F])[C@@H](O)C(O)C2O)nn1)NCCC[C@@H](NC(=O)C(c1ccccc1)c1ccccc1)C(=O)NCc1ccc(O)cc1", "note": "(stereo partly drawn) [[^18F]11, (2R)‐5‐{[(1Z)‐Amino({[({1‐[(2R,5S)‐6‐([^18F]fluoromethyl)‐3,4,5‐trihydroxyoxan‐2‐yl]‐1H‐1,2,3‐triazol‐4‐yl}methyl)carbamoyl]imino})methyl]amino}‐2‐(2,2‐diphenylacetamido)‐N‐[(4‐hydroxyphenyl)-methyl]pentanamide]", "values": [
      {"measurement": "stability in the blood in vivo (in words)", "setting": "[1]", "result": "higher stability in the blood in vivo"},
      {"measurement": "intact radioligand in blood samples", "setting": "[1]; mouse", "result": "about 50%"},
      {"measurement": "specific accumulation in MCF-7-Y1 cells (total radioactivity in each well = 100%)", "setting": "MCF-7-Y1 cells", "result": "almost no specific binding"}
    ]},
    {"compound": "N/C(=N/C(=O)NCc1cn(CCOCCOCCOCC[18F])nn1)NCCC[C@@H](NC(=O)C(c1ccccc1)c1ccccc1)C(=O)NCc1ccc(O)cc1", "note": "[[^18F]13, (2R)‐5‐{[(1Z)‐Amino[({[1‐(2‐{2‐[2‐(2‐[^18F]fluoroethoxy)ethoxy]ethoxy}ethyl)‐1H‐1,2,3‐triazol‐4‐yl]methyl}carbamoyl)imino]methyl]amino}‐2‐(2,2‐diphenylacetamido)‐N‐[(4‐hydroxyphenyl)-methyl]pentanamide]", "values": [
      {"measurement": "radiometabolites in the blood", "setting": "[1]; mouse", "result": "> 90", "unit": "%"},
      {"measurement": "stability in the blood in vivo (in words)", "setting": "[1]", "result": "underwent rapid degradation in the blood"},
      {"measurement": "intact radioligand in blood samples", "setting": "[1]; mouse", "result": "less than 5%"},
      {"measurement": "specific accumulation in MCF-7-Y1 cells (total radioactivity in each well = 100%)", "setting": "MCF-7-Y1 cells", "result": 1, "unit": "%"}
    ]}
  ]
}
